In brackets after ≈: the same amount, converted by molar mass. Square brackets hold non-standard residues; d marks the D form. Ends that are not written are not given here. Peptide text beside a SMILES is read from it.
Key:
[1] = tested on: human peripheral blood mononuclear cells (PBMC); experiment: Propidium iodide uptake in PBMC; assay type: cell-based; details: for PI uptake in normal human PBMC: 50 μM peptide, three hours
Text: The second assay for effects on mammalian cells involved isolating human peripheral blood mononuclear cells (PBMC) and testing peptide induced uptake of propidium iodide (PI), a measure of membrane disruption. […] Thus, the vast majority of granulysin peptide derivatives are not toxic to mammalian cells even at high concentrations.

[2] = tested on: Salmonella; assay type: cell-based, S. typhimurium; details: pH 7.2
How it was run: (§1)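 First, peptides in 10 mM phosphate pH 7.2 with 0.03% LB meet bacteria (~5×10^6 CFU/ml). Second, incubation runs 3 h at 37 °C. Third, LB is added and plates grow overnight before OD600 reading.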

[3] = tested on: B. cereus; assay type: cell-based; details: pH 7.2
How it was run: as §1

[4] = tested on: E. coli DH5a; assay type: cell-based; details: DH5a; for E. coli DH5a MIC / IC50: pH 7.2
How it was run: as §1

[5] = tested on: bacterial strains; experiment: organism not typed; assay type: cell-based
Protocol: (§2) Three preferred peptides G11.46, G12.21 and G14.15, discussed above, were further tested for antimicrobial efficacy under various conditions using the 10% FCS/DMEM assay as described under CFU assay. The incubation times with the bacteria and peptide was three hours, at which time the bacteria were diluted and plated on agar. […] The MIC for each compound is highlighted.
Table 9 below repeats some data presented above in Tables 6, 7, and 8.

[6] = tested on: U937 cells; experiment: Lysis of tumor cells: apoptosis of U937 by 3H-thymidine; details: U937, 50 μM peptide, 4-6 hours
Protocol: The effects were tested in two ways. First, peptides were tested for the ability to lyse tumor cells, as judged by induction of apoptosis in the monocyte-like cell line U937. U937 cells were cultured overnight in DMEM supplemented with 10% FCS plus 1 μCi/ml ^3H-thymidine. The next day, cells were washed and cultured in DMEM/10% FCS in the presence of 50 μM peptide for 4-6 hours. Cells were then harvested and ^3H-thymidine determined by beta-scintillation counting. Apoptosis results in DNA fragmentation, so the ^3H-thymidine is reduced in cells undergoing apoptosis.

[7] = tested on: Jurkat cells; assay type: cell-based
Text: (§3) To further investigate the contribution of secondary structure to function, additional Peptides G16-G19 (beyond peptides G1-G15, previously reported) were synthesized. Peptide G16 is identical to G13, except that a D-alanine residue was substituted for the L-alanine at position 30. […] In peptide G17, the two arginine residues in loop two are substituted with glutamine.
(§4) As shown above, substitution of the two arginine residues in Loop 2 with glutamine abrogates activity against Jurkat cells but only slightly affects lysis of S. typhimurium. Peptide G18 is identical to G14 except that a D-arginine was substituted at position 46. […] Peptide G19 incorporates both the R→Q substitutions as well as the D-arginine at position 46.

[8] = tested on: S. typhimurium; experiment: Lysis of bacteria by counting bacterial colonies on plates; assay type: cell-based; details: colony counting
Text: as §3, §4
The experiments described above characterizing the activity of granulysin peptides G1-G18 relied on counting bacterial colonies on plates. This assay is quite labor intensive and would not allow evaluation of many different compounds on a number of different microbes. Therefore, we optimized an assay in which the entire procedure could be completed in a single microtiter well. […] The OD at 600 nm is read on an ELISA plate reader. […]

[9] = tested on: Staphylococcus aureus; experiment: CFU assay in 10% FCS/DMEM; assay type: cell-based; details: 3 hrs
Protocol: (§5) The CFU assay is the “gold standard” for evaluating antibiotics. Briefly, bacteria are grown overnight in rich medium, such as LB, and then diluted and grown in log phase for 2-4 hours. Cultures are set up as above, with the initial culture media being 10 mM phosphate buffer/0.03% LB; DMEM or RPMI; or DMEM or RPMI plus 10% serum (fetal calf, human, or mouse). After various periods of time, but generally 3 hours or less, aliquots are removed, diluted in LB at various dilutions, and plated on LB agar plates. Plates are incubated overnight at 37° C. and counted on an automatic colony counter.
as §2

[10] = tested on: Salmonella typhimurium; experiment: CFU assay in 10% FCS/DMEM; assay type: cell-based; details: 3 hrs
Protocol: as §5, §2

[11] = tested on: E. coli; experiment: CFU assay in 10% FCS/DMEM; assay type: cell-based; details: 3 hrs
Protocol: as §5, §2

## CSCC[C@@H](NC(=O)[C@H]1CCCN1C(=O)[C@@H](CCCNC(=N)N)NC(=O)[C@@H](CCCNC(=N)N)NC(=O)[C@@H](CO)NC(=O)[C@H](NC(=O)[C@@H](CCCNC(=N)N)NC(=O)[C@H](N)CCCNC(=N)N)C(C)C)C(=O)N[C@H](CCCNC(=N)N)C(=O)N[C@H](CCCNC(=N)N)C(=O)N[C@H](Cc1ccc(O)cc1)C(=O)N[C@H](CCCNC(=N)N)C(=O)N[C@H](CO)C(=O)N[C@H](CCCNC(=N)N)C(=O)N[C@H](CCCNC(=N)N)C(=O)N1CCC[C@@H]1C(=O)N[C@H](CCCNC(=N)N)C(=O)N[C@H](CCCNC(=N)N)C(=O)N[C@H](CC(C)C)C(=O)N[C@@H](C(=O)O)C(C)C [Peptide G12.21, rrvsrrpmrryrsrrprrlv] (H-[dR][dR][dV][dS][dR][dR][dP][dM][dR][dR][dY][dR][dS][dR][dR][dP][dR][dR][dL][dV]-OH)
[1]
  toxicity against mammalian cells: no toxicity
[2]
  IC50: 210 nM
  Salmonella MIC: 0.35 µM
[3]
  B. cereus MIC: 0.35 µM
  IC50: 210 nM
[4]
  MIC: 0.2 µM (≈ 0.542 µg/mL)
  E. coli DH5a MIC: 0.2 µM
  IC50: < 78 nM
[5]; ATCC#25922, 3 h
  MIC: 0.63 µM (≈ 1.71 µg/mL)
[5]; ATCC#29213, 3 h
  MIC: 0.32 to 0.63 µM
[5]; ATCC#53522, 3 h
  MIC: 0.02 µM (≈ 0.0542 µg/mL)
[5]; SL1344, 3 h
  MIC: 1.25 to 2.5 µM

## CC[C@@H](C)[C@@H](NC(=O)[C@@H](CCCNC(=N)N)NC(=O)[C@@H](CCCNC(=N)N)NC(=O)[C@@H](CO)NC(=O)[C@@H](CCCNC(=N)N)NC(=O)[C@@H](Cc1ccc(O)cc1)NC(=O)[C@@H](CCCNC(=N)N)NC(=O)[C@@H](CCCNC(=N)N)NC(=O)[C@@H](CCSC)NC(=O)[C@@H](Cc1ccccc1)NC(=O)[C@@H](CCCNC(=N)N)NC(=O)[C@@H](CCCNC(=N)N)NC(=O)[C@@H](CO)NC(=O)[C@H](NC(=O)[C@@H](CCCNC(=N)N)NC(=O)[C@H](N)CCCNC(=N)N)C(C)C)C(=O)N[C@H](CCCNC(=N)N)C(=O)N[C@H](CCCNC(=N)N)C(=O)N[C@H](CC(C)C)C(=O)N[C@@H](C(=O)O)C(C)C [Peptide G12.34, rrvsrrfmrryrsrrirrlv] (H-[dR][dR][dV][dS][dR][dR][dF][dM][dR][dR][dY][dR][dS][dR][dR][dI][dR][dR][dL][dV]-OH)
[6]
  apoptosis of tumor cells: cause apoptosis of tumor cells
[1]
  toxicity against mammalian cells: somewhat lytic against mammalian cells
  PI uptake in normal human PBMC: caused PI uptake in normal human PBMC
[2]
  IC50: 210 nM
  Salmonella MIC: 0.78 µM
[3]
  B. cereus MIC: 0.31 µM
  IC50: 120 nM
[4]
  E. coli DH5a MIC: 0.2 µM
  IC50: 110 nM

## CSCC[C@@H](NC(=O)[C@@H](Cc1ccccc1)NC(=O)[C@@H](CCCNC(=N)N)NC(=O)[C@@H](CCCNC(=N)N)NC(=O)[C@@H](CO)NC(=O)[C@H](NC(=O)[C@@H](CCCNC(=N)N)NC(=O)[C@@H](CCCNC(=N)N)NC(=O)[C@@H](Cc1c[nH]c2ccccc12)NC(=O)[C@@H](CCCNC(=N)N)NC(=O)[C@@H](CO)NC(=O)[C@@H](CCCNC(=N)N)NC(=O)CN)C(C)C)C(=O)N[C@H](CCCNC(=N)N)C(=O)N[C@H](CCCNC(=N)N)C(=O)O [Peptide G14.15, grsrwrrvsrrfmrr] (H-G[dR][dS][dR][dW][dR][dR][dV][dS][dR][dR][dF][dM][dR][dR]-OH)
[1]
  PI uptake in normal human PBMC: caused PI uptake in normal human PBMC
[2]
  IC50: 150 nM
  Salmonella MIC: 0.35 µM
[3]
  B. cereus MIC: 0.2 µM
  IC50: < 78 nM
[4]
  MIC: 0.3 µM (≈ 0.619 µg/mL)
  E. coli DH5a MIC: 0.1 µM
  IC50: < 78 nM
[5]; ATCC#25922, 3 h
  MIC: 0.63 to 1.25 µM
[5]; ATCC#29213, 3 h
  MIC: 10 µM (≈ 20.6 µg/mL)
[5]; ATCC#53522, 3 h
  MIC: 0.16 µM (≈ 0.33 µg/mL)
[5]; SL1344, 3 h
  MIC: 2.5 to 5 µM

## CSCC[C@H](NC(=O)[C@H](Cc1ccccc1)NC(=O)[C@H](CC(N)=O)NC(=O)[C@@H](CCCNC(=N)N)NC(=O)[C@H](CS)NC(=O)[C@@H](NC(=O)[C@H](CC(=O)O)NC(=O)[C@H](CCCNC(=N)N)NC(=O)[C@H](Cc1c[nH]c2ccccc12)NC(=O)[C@H](CCCNC(=N)N)NC(=O)[C@H](CO)NC(=O)[C@H](CCCNC(=N)N)NC(=O)CN)C(C)C)C(=O)N[C@@H](CCCNC(=N)N)C(=O)N[C@@H](CCCNC(=N)N)C(=O)O [Peptide G18, GRSRWRDVCrNFMRR] (H-GRSRWRDVC[dR]NFMRR-OH)
[7]
  lysis of Jurkat cells: loses some activity against Jurkat cells

## GQSQWRDVCrNFMRR [Peptide G19]
[8]
  lysis of bacteria (S. typhimurium): behaves identically to G115

## GRSRWRDVCRNFMRR [Peptide G14, GRSRWRDVCRNFMRR, reference compound]
[7]
  lysis of Jurkat cells: lyses both bacteria and mammalian cells
[2]
  IC50: 890 nM
  Salmonella MIC: 1.37 µM
[3]
  B. cereus MIC: 2.8 µM
  IC50: 1750 nM
[4]
  E. coli DH5a MIC: 1.37 µM
  IC50: 890 nM

## QRSVSNAaTRVCRTGQSQW [Peptide G17]
[8]
  lysis of bacteria (S. typhimurium): no longer exhibits activity against S. typhimurium
[7]
  lysis of Jurkat cells: Neither peptide G16 nor G17 lysed Jurkat cells in an appreciable way

## gentamicin [reference compound]
[9]; 0.04 μM
  % Survival (CFU Assay): 90.73%
[9]; 0.08 μM
  % Survival (CFU Assay): 78.94%
[9]; 0.16 μM
  % Survival (CFU Assay): 59.49%
[9]; 0.32 μM
  % Survival (CFU Assay): 37%
[9]; 0.63 μM
  % Survival (CFU Assay): 28.51%
[9]; >1.25 μM
  % Survival (CFU Assay): 17.1%
[10]; 0.04 μM
  % Survival (CFU Assay): 119.73%
[10]; 0.08 μM
  % Survival (CFU Assay): 103.72%
[10]; 0.16 μM
  % Survival (CFU Assay): 105.73%
[10]; 0.32 μM
  % Survival (CFU Assay): 93.27%
[10]; 0.63 μM
  % Survival (CFU Assay): 70.15%
[10]; >1.25 μM
  % Survival (CFU Assay): 29.7%
[11]; 0.08 μM
  % Survival (CFU Assay): 117.89%
[11]; 0.16 μM
  % Survival (CFU Assay): 110.6%
[11]; 0.32 μM
  % Survival (CFU Assay): 87.76%
[11]; 0.63 μM
  % Survival (CFU Assay): 17.05%
[11]; 1.25 μM
  % Survival (CFU Assay): 0.21%
[11]; 2.5 μM
  % Survival (CFU Assay): 0.052%
[5]; E. Coli (ATCC#25922), CFU Assay in 10% FCS/DMEM (3 hrs)
  MIC: 1.25 µM
[5]; Salmonella (SL1344), CFU Assay in 10% FCS/DMEM (3 hrs)
  MIC: 2.5 to 5 µM
[5]; Staph A (ATCC#29213), CFU Assay in 10% FCS/DMEM (3 hrs)
  MIC: >1.25 µM
